According to US20120196824A1, “THERAPEUTIC AGENT FOR CEREBRAL INFARCTION” (MITSUBISHI TANABE PHARMA CORPORATION, priority 2009, published 2012):

Molecular target: T1, Human-recombinant-S-Adenosyl-L-Homocysteine Hydrolase (Homo sapiens, UniProt P23526)
T1 construct: purchased Diazyme Laboratories
Assay: Measurement of enzyme inhibitory activity (hydrolysis of S-Adenosyl-L-Homocysteine, HPLC)
Format: biochemical
Details: S-Adenosyl-L-Homocysteine 10 μM, pH 7.2, 37° C., 15 min
Protocol: The enzyme inhibitory activity of the compounds of the Examples was measured using the hydrolysis activity of S-Adenosyl-L-Homocysteine as an index. The measurement method was modification of the method of Henry H. Richards et al. (J. Biol. Chem. 253, 4476-4480, 1978). That is, S-Adenosyl-L-Homocysteine (10 μM) and Adenosine Deaminase (Roche) (4 units) were added to 50 mM phosphate buffer (pH 7.2, containing 1 mM EDTA) with the total amount being 200 μl, and to the solution were added a test substance and then Human-recombinant-S-Adenosyl-L-Homocysteine Hydrolase (50 ng, Diazyme Laboratories) to start the reaction, and the mixture was incubated at 37° C. for 15 min. The reaction was quenched by the addition of 1N aqueous perchloric solution (20 μl), and the mixture was centrifuged under the conditions of 10000 rpm, 5 min, 4° C. The supernatant was collected, and the amount of S-Adenosyl-L-Homocysteine after the reaction was quantified by HPLC. The column used was a reversed-phase column. The detailed conditions of HPLC were as follows.
column used: Wakopak^R HandyODS 150*4.6 mm (Wako Pure Chemical Industries, Ltd.) elution condition: 1.0 ml/min elution solvent: 0.1M acetate buffer (pH 4.0) containing 10 mM 1-heptanesulfonic acid containing 4% acetonitrile wavelength: 258 nm (UV) The inhibitory rate was determined with the amount of decrease in S-Adenosyl-L-Homocysteine before and after the reaction without using the test substance as 100%.
Inhibitory rate (%)={(amount of decrease of S-Adenosyl-L-Homocysteine in the presence of test substance)/(amount of decrease of S-Adenosyl-L-Homocysteine in the absence of test substance)}×100

T1 sequence (P23526 whole entry): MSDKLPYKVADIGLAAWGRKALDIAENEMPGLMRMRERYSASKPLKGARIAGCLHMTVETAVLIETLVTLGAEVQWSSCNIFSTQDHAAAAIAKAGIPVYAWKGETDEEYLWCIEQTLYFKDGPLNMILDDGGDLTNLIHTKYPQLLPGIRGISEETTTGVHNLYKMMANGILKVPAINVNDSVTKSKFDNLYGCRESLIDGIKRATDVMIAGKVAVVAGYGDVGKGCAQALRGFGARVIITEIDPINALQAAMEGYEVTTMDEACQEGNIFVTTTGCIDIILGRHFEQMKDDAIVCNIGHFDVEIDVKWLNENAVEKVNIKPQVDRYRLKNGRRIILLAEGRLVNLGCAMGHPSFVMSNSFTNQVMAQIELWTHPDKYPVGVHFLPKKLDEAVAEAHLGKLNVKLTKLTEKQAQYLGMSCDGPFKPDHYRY

SMILES | IC50
Cc1nc(-c2ccc(C)c(N(CC(=O)NCCNC(C)C)CC(=O)N(C)N3Cc4ccccc4C3)c2)no1 [Example 15, N^2-{2-[1,3-dihydro-2H-isoindol-2-yl(methyl)amino]-2-oxoethyl}-N^2-[2-methyl-5-(5-methyl-1,2,4-oxadiazol-3-yl)phenyl]-N^1-[2-(isopropylamino)ethyl]glycinamide] | 0.017 µM
CCNCCNC(=O)CN(CC(=O)N(C)C1Cc2ccccc2C1)c1cc(-c2noc(C)n2)ccc1C [Example 26, N^2-{2-[2,3-dihydro-1H-inden-2-yl(methyl)amino]-2-oxoethyl}-N^2-[2-methyl-5-(5-methyl-1,2,4-oxadiazol-3-yl)phenyl]-N^1-[2-(ethylamino)ethyl]glycinamide] | 0.056 µM
CCNCCNC(=O)CN(CC(=O)N(C)N1Cc2ccccc2C1)c1cc(C(C)=O)ccc1C [Example 57, N^2-(5-acetyl-2-methylphenyl)-N^2-{2-[1,3-dihydro-2H-isoindol-2-yl(methyl)amino]-2-oxoethyl}-N^1-[2-(ethylamino)ethyl]glycinamide] | 0.042 µM
CCNCCNC(=O)CN(CC(=O)N(C)N1Cc2ccc(F)cc2C1)c1cc(-c2nc(C)no2)ccc1C [Example 87, N^2-{2-[(5-fluoro-1,3-dihydro-2H-isoindol-2-yl)(methyl)amino]-2-oxoethyl}-N^2-[2-methyl-5-(3-methyl-1,2,4-oxadiazol-5-yl)phenyl]-N^1-[2-(ethylamino)ethyl]glycinamide] | 0.018 µM
CCNCCNC(=O)CN(CC(=O)N(C)N1Cc2ccccc2C1)c1cc(-c2ncccn2)ccc1C [Example 129, N^2-{2-[1,3-dihydro-2H-isoindol-2-yl(methyl)amino]-2-oxoethyl}-N^2-(2-methyl-5-pyrimidin-2-ylphenyl)-N^1-[2-(ethylamino)ethyl]glycinamide] | 0.01 µM
Cc1cc2onc(C)c2cc1N(CC(=O)NCCNC(C)C)CC(=O)N(C)N1Cc2ccccc2C1 [Example 180, N^2-{2-[1,3-dihydro-2H-isoindol-2-yl(methyl)amino]-2-oxoethyl}-N^2-(3,6-dimethyl-1,2-benzisoxazol-5-yl)-N^1-[2-(isopropylamino)ethyl]glycinamide] | 0.015 µM
CCNCCNC(=O)CN(CC(=O)N(C)N1Cc2ccccc2C1)c1cc2c(C)noc2cc1C [Example 181, N^2-{2-[1,3-dihydro-2H-isoindol-2-yl(methyl)amino]-2-oxoethyl}-N^2-(3,6-dimethyl-1,2-benzisoxazol-5-yl)-N^1-[2-(ethylamino)ethyl]glycinamide] | 0.016 µM
CCNCCNC(=O)CN(CC(=O)N(C)N1Cc2ccccc2C1)c1cc2c(cc1C)oc(=O)n2C [Example 191, N^2-{2-[1,3-dihydro-2H-isoindol-2-yl(methyl)amino]-2-oxoethyl}-N^2-(3,6-dimethyl-1,3-benzoxazol-2(3H)-on-5-yl)-N^1-[2-(ethylamino)ethyl]glycinamide] | 0.051 µM
CCNCCNC(=O)CN(CC(=O)N(C)N1Cc2ccc(F)cc2C1)c1ccc(-c2noc(C)n2)cc1C [Example 204, N^2-{2-[(5-fluoro-1,3-dihydro-2H-isoindol-2-yl)(methyl)amino]-2-oxoethyl}-N^2-[2-methyl-4-(5-methyl-1,2,4-oxadiazol-3-yl)phenyl]-N^1-[2-(ethylamino)ethyl]glycinamide] | 0.065 µM
CCNCCNC(=O)CN(CC(=O)N(C)N1Cc2cccc(F)c2C1)c1ccc(-c2noc(C)n2)cc1C [Example 205, N^2-{2-[(4-fluoro-1,3-dihydro-2H-isoindol-2-yl)(methyl)amino]-2-oxoethyl}-N^2-[2-methyl-4-(5-methyl-1,2,4-oxadiazol-3-yl)phenyl]-N^1-[2-(ethylamino)ethyl]glycinamide] | 0.048 µM

Now from value to compound:

IC50 | SMILES
0.019 µM | CCNCCNC(=O)CN(CC(=O)N(C)N1Cc2ccccc2C1)c1cc(-c2noc(C)n2)ccc1C [Example 16, N^2-{2-[1,3-dihydro-2H-isoindol-2-yl(methyl)amino]-2-oxoethyl}-N^2-[2-methyl-5-(5-methyl-1,2,4-oxadiazol-3-yl)phenyl]-N^1-[2-(ethylamino)ethyl]glycinamide]
0.033 µM | CCNCCNC(=O)CN(CC(=O)N(C)N1Cc2cccc(F)c2C1)c1cc(-c2noc(C)n2)ccc1C [Example 19, N^2-{2-[(4-fluoro-1,3-dihydro-2H-isoindol-2-yl)(methyl)amino]-2-oxoethyl}-N^2-[2-methyl-5-(5-methyl-1,2,4-oxadiazol-3-yl)phenyl]-N^1-[2-(ethylamino)ethyl]glycinamide]
0.052 µM | CC(=O)c1ccc(C)c(N(CC(=O)NCCNC(C)C)CC(=O)N(C)N2Cc3ccccc3C2)c1 [Example 56, N^2-(5-acetyl-2-methylphenyl)-N^2-{2-[1,3-dihydro-2H-isoindol-2-yl(methyl)amino]-2-oxoethyl}-N^1-[2-(isopropylamino)ethyl]glycinamide]
0.034 µM | Cc1noc(-c2ccc(C)c(N(CC(=O)NCCNC(C)C)CC(=O)N(C)N3Cc4ccccc4C3)c2)n1 [Example 84, N^2-{2-[1,3-dihydro-2H-isoindol-2-yl(methyl)amino]-2-oxoethyl}-N^2-[2-methyl-5-(3-methyl-1,2,4-oxadiazol-5-yl)phenyl]-N^1-[2-(isopropylamino)ethyl]glycinamide]
0.017 µM | CCNCCNC(=O)CN(CC(=O)N(C)N1Cc2ccccc2C1)c1cc(-c2nc(C)no2)ccc1C [Example 85, N^2-{2-[1,3-dihydro-2H-isoindol-2-yl(methyl)amino]-2-oxoethyl}-N^2-[2-methyl-5-(3-methyl-1,2,4-oxadiazol-5-yl)phenyl]-N^1-[2-(ethylamino)ethyl]glycinamide]
0.046 µM | CCNCCNC(=O)CN(CC(=O)N(C)N1Cc2ccccc2C1)c1cc2c(cc1C)N(CC)C(=O)CC2 [Example 177, N^2-{2-[1,3-dihydro-2H-isoindol-2-yl(methyl)amino]-2-oxoethyl}-N^2-(1-ethyl-7-methyl-2-oxo-1,2,3,4-tetrahydroquinolin-6-yl)-N^1-[2-(ethylamino)ethyl]glycinamide]
0.088 µM | Cc1cc2oc(=O)n(C)c2cc1N(CC(=O)NCCNC(C)C)CC(=O)N(C)N1Cc2ccccc2C1 [Example 190, N^2-{2-[1,3-dihydro-2H-isoindol-2-yl(methyl)amino]-2-oxoethyl}-N^2-(3,6-dimethyl-1,3-benzoxazol-2(3H)-on-5-yl)-N^1-[2-(isopropylamino)ethyl]glycinamide]
0.046 µM | Cc1cc2c(cc1N(CC(=O)NCCNC(C)C)CC(=O)N(C)N1Cc3ccccc3C1)oc(=O)n2C [Example 192, N^2-{2-[1,3-dihydro-2H-isoindol-2-yl(methyl)amino]-2-oxoethyl}-N^2-(3,5-dimethyl-1,3-benzoxazol-2(3H)-on-6-yl)-N^1-[2-(isopropylamino)ethyl]glycinamide]
0.029 µM | CCNCCNC(=O)CN(CC(=O)N(C)N1Cc2ccccc2C1)c1cc2oc(=O)n(C)c2cc1C [Example 193, N^2-{2-[1,3-dihydro-2H-isoindol-2-yl(methyl)amino]-2-oxoethyl}-N^2-(3,5-dimethyl-1,3-benzoxazol-2(3H)-on-6-yl)-N^1-[2-(ethylamino)ethyl]glycinamide]
0.034 µM | CCNCCNC(=O)CN(CC(=O)N(C)N1Cc2ccccc2C1)c1ccc(C(C)=O)cc1C [Example 210, N^2-(4-acetyl-2-methylphenyl)-N^2-{2-[1,3-dihydro-2H-isoindol-2-yl(methyl)amino]-2-oxoethyl}-N^1-[2-(ethylamino)ethyl]glycinamide]
0.051 µM | CCNCCNC(=O)CN(CC(=O)N(C)N1Cc2ccc(F)cc2C1)c1ccc(C(C)=O)cc1C [Example 211, N^2-(4-acetyl-2-methylphenyl)-N^2-{2-[(5-fluoro-1,3-dihydro-2H-isoindol-2-yl)(methyl)amino]-2-oxoethyl}-N^1-[2-(ethylamino)ethyl]glycinamide]
0.023 µM | CCNCCNC(=O)CN(CC(=O)N(C)N1Cc2ccccc2C1)c1cc2c(cc1C)CCC2=O [Example 214, N^2-{2-[1,3-dihydro-2H-isoindol-2-yl(methyl)amino]-2-oxoethyl}-N^2-(6-methyl-3-oxo-2,3-dihydro-1H-inden-5-yl)-N^1-[2-(ethylamino)ethyl]glycinamide]
0.033 µM | CCNCCNC(=O)CN(CC(=O)N(C)N1Cc2cccc(F)c2C1)c1cc2c(cc1C)CCC2=O [Example 216, N^2-{2-[(4-fluoro-1,3-dihydro-2H-isoindol-2-yl)(methyl)amino]-2-oxoethyl}-N^2-(6-methyl-3-oxo-2,3-dihydro-1H-inden-5-yl)-N^1-[2-(ethylamino)ethyl]glycinamide]
0.046 µM | CCNCCNC(=O)CN(CC(=O)N(C)N1Cc2ccc(F)cc2C1)c1ccc(-c2nc(C)no2)cc1C [Example 231, N^2-{2-[(5-fluoro-1,3-dihydro-2H-isoindol-2-yl)(methyl)amino]-2-oxoethyl}-N^2-[2-methyl-4-(3-methyl-1,2,4-oxadiazol-5-yl)phenyl]-N^1-[2-(ethylamino)ethyl]glycinamide]
